According to PubChem BioAssay AID248 (DTP/NCI, 2004):
Inconclusive results and toxic doses are left out. Cut-off read from the data, not from the text of the source: active = T/C of 150% or more; inactive = T/C below 125%.

System: L1210 leukemia ip in BDF1 mice, survival T/C
Assay: NCI In Vivo Anticancer Drug Screen. Data for tumor model L1210 Leukemia (intraperitoneal) in B6D2F1 (BDF1) mice
Conditions: endpoint: mean survival time, higher = longer survival
In short: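 Mice bearing the transplanted tumor received compound or vehicle. Survival of the treated group was divided by that of the vehicle-treated control group to give the ratio.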

[1] = dose: 25.0 mg/kg/injection, schedule: Q01DX009 (ip), vehicle: saline
[2] = dose: 25.0 mg/kg/injection, schedule: Q04DX003 (ip), vehicle: saline
[3] = dose: 100.0 mg/kg/injection, schedule: Q01DX009 (ip), vehicle: saline
[4] = dose: 100.0 mg/kg/injection, schedule: Q04DX003 (ip), vehicle: saline
[5] = dose: 200.0 mg/kg/injection, schedule: Q01DX009 (ip), vehicle: saline
[6] = dose: 200.0 mg/kg/injection, schedule: Q04DX003 (ip), vehicle: saline
[7] = dose: 400.0 mg/kg/injection, schedule: Q04DX003 (ip), vehicle: saline
[8] = dose: 6.25 mg/kg/injection, schedule: Q01DX009 (ip), vehicle: saline
[9] = dose: 12.5 mg/kg/injection, schedule: Q01DX009 (ip), vehicle: saline
[10] = dose: 200.0 mg/kg/injection, schedule: Q01DX001 (ip), vehicle: carboxymethylcellulose (CMC)
[11] = dose: 400.0 mg/kg/injection, schedule: Q01DX001 (ip), vehicle: carboxymethylcellulose (CMC)
[12] = dose: 25.0 mg/kg/injection, schedule: Q01DX009 (ip), vehicle: Klucel (hydroxypropylcellulose) (HPC)
[13] = dose: 50.0 mg/kg/injection, schedule: Q01DX009 (ip), vehicle: Klucel (hydroxypropylcellulose) (HPC)
[14] = dose: 100.0 mg/kg/injection, schedule: Q01DX009 (ip), vehicle: Klucel (hydroxypropylcellulose) (HPC)
[15] = dose: 100.0 mg/kg/injection, schedule: Q01DX009 (ip), vehicle: saline with Tween-80
[16] = dose: 100.0 mg/kg/injection, schedule: Q04DX003 (ip), vehicle: saline with Tween-80
[17] = dose: 200.0 mg/kg/injection, schedule: Q04DX003 (ip), vehicle: saline with Tween-80
[18] = dose: 400.0 mg/kg/injection, schedule: Q04DX003 (ip), vehicle: saline with Tween-80
[19] = dose: 200.0 mg/kg/injection, schedule: Q01DX009 (ip), vehicle: Klucel (hydroxypropylcellulose) (HPC)
[20] = dose: 75.0 mg/kg/injection, schedule: Q01DX001 (ip), vehicle: carboxymethylcellulose (CMC)
[21] = dose: 150.0 mg/kg/injection, schedule: Q01DX001 (ip), vehicle: carboxymethylcellulose (CMC)

Measured: T/C

Cc1ccccc1OCC(O)CO (stereo unspecified)
inactive: [1] 95 % of control | [2] 101 % of control | dose: 50.0 mg/kg/injection, schedule: Q01DX009 (ip), vehicle: saline 93 % of control | dose: 50.0 mg/kg/injection, schedule: Q04DX003 (ip), vehicle: saline 95 % of control | [3] 102 % of control | [4] 95 % of control | [5] 102 % of control | [6] 111 % of control | dose: 400.0 mg/kg/injection, schedule: Q01DX009 (ip), vehicle: saline 98 % of control | [7] 123 % of control

c1ccc2cnccc2c1
inactive: [3] 100 % of control | [5] 110 % of control

O=C(O)/C(=C\c1cccnc1)NC(=O)c1ccccc1
inactive: dose: 100.0 mg/kg/injection, schedule: Q04DX002 (ip), vehicle: Klucel (hydroxypropylcellulose) (HPC) 90 % of control | dose: 200.0 mg/kg/injection, schedule: Q04DX002 (ip), vehicle: Klucel (hydroxypropylcellulose) (HPC) 101 % of control | dose: 400.0 mg/kg/injection, schedule: Q04DX002 (ip), vehicle: Klucel (hydroxypropylcellulose) (HPC) 96 % of control

N=C(N)c1ccc(OCCCOc2ccc(C(=N)N)cc2Br)c(Br)c1
inactive: [8] 100 % of control | dose: 6.25 mg/kg/injection, schedule: Q04DX003 (ip), vehicle: saline 99 % of control | [9] 115 % of control | dose: 12.5 mg/kg/injection, schedule: Q04DX003 (ip), vehicle: saline 99 % of control | dose: 16.5 mg/kg/injection, schedule: Q01DX009 (ip), vehicle: saline 123 % of control | dose: 18.0 mg/kg/injection, schedule: Q01DX Z (ip), vehicle: methylcellulose (MC) 110 % of control | [2] 92 % of control | dose: 27.0 mg/kg/injection, schedule: Q01DX Z (ip), vehicle: methylcellulose (MC) 113 % of control | dose: 37.5 mg/kg/injection, schedule: Q01DX009 (ip), vehicle: saline 107 % of control | dose: 40.0 mg/kg/injection, schedule: Q01DX Z (ip), vehicle: methylcellulose (MC) 103 % of control | dose: 60.0 mg/kg/injection, schedule: Q01DX Z (ip), vehicle: methylcellulose (MC) 113 % of control

O=C(CCl)c1ccc2c(c1)Nc1ccccc1S2
inactive: dose: 50.0 mg/kg/injection, schedule: Q01DX001 (ip), vehicle: carboxymethylcellulose (CMC) 93 % of control | [10] 93 % of control | [11] 96 % of control

C=C/C(C)=C/[C@H](C)C(=O)C[C@H](O)CC1CC(=O)NC(=O)C1
inactive: dose: 12.5 mg/kg/injection, schedule: Q01DX009 (ip), vehicle: saline with Tween-80 109 % of control | [12] 113 % of control | dose: 25.0 mg/kg/injection, schedule: Q01DX009 (ip), vehicle: saline with Tween-80 120 % of control | [13] 122 % of control | dose: 50.0 mg/kg/injection, schedule: Q01DX009 (ip), vehicle: saline with Tween-80 119 % of control | [14] 90 % of control | [15] 123 % of control

CC(=O)Oc1ccc(/C=C(\NC(=O)c2ccccc2)C(=O)O)cc1
inactive: dose: 100.0 mg/kg/injection, schedule: Q04DX003 (ip), vehicle: Klucel (hydroxypropylcellulose) (HPC) 95 % of control | dose: 200.0 mg/kg/injection, schedule: Q04DX003 (ip), vehicle: Klucel (hydroxypropylcellulose) (HPC) 91 % of control | dose: 400.0 mg/kg/injection, schedule: Q04DX003 (ip), vehicle: Klucel (hydroxypropylcellulose) (HPC) 91 % of control

CN(C)C=Nc1ccc([N+](=O)[O-])c2ccccc12
inactive: [16] 103 % of control | [17] 106 % of control | [18] 104 % of control

CN(C)c1ccc(/C=C/C(=O)/C=C/c2ccc(N(C)C)cc2)cc1
inactive: [14] 96 % of control | [19] 95 % of control | dose: 400.0 mg/kg/injection, schedule: Q01DX009 (ip), vehicle: Klucel (hydroxypropylcellulose) (HPC) 101 % of control

CCCCCCCCCCC(O)CN1CCN(c2ccc(C)cc2)CC1 (stereo unspecified)
inactive: dose: 12.5 mg/kg/injection, schedule: Q01DX009 (ip), vehicle: Klucel (hydroxypropylcellulose) (HPC) 90 % of control | [12] 90 % of control | [13] 89 % of control | [14] 94 % of control | [19] 101 % of control

O=C(COc1ccc(Cl)c(Cl)c1)Nc1ccc[n+](Cc2ccc(S(=O)(=O)F)cc2Cl)c1
inactive: [15] 94 % of control

CC(C)N1CC(C)(C)N=C1C(C#N)c1cnc2ccccc2n1 (stereo unspecified)
inactive: dose: 100.0 mg/kg/injection, schedule: Q01DX001 (ip), vehicle: saline 98 % of control | dose: 200.0 mg/kg/injection, schedule: Q01DX001 (ip), vehicle: saline 94 % of control | dose: 400.0 mg/kg/injection, schedule: Q01DX001 (ip), vehicle: saline 94 % of control

O=C1CCC(c2ccccc2)(C2CCN(Cc3ccc(F)cc3)CC2)C(=O)N1 (stereo unspecified)
inactive: [8] 97 % of control | [9] 102 % of control | [1] 102 % of control

Cc1cc(C)[nH]c(=S)n1
inactive: dose: 100.0 mg/kg/injection, schedule: Q04DX002 (ip), vehicle: saline 101 % of control | [4] 97 % of control | dose: 200.0 mg/kg/injection, schedule: Q04DX002 (ip), vehicle: saline 101 % of control | [6] 89 % of control | dose: 400.0 mg/kg/injection, schedule: Q04DX002 (ip), vehicle: saline 94 % of control

CC(C)/C=N/NP(Br)(c1ccccc1)(c1ccccc1)c1ccccc1
inactive: [20] 93 % of control | [21] 95 % of control | dose: 300.0 mg/kg/injection, schedule: Q01DX001 (ip), vehicle: carboxymethylcellulose (CMC) 102 % of control

O=[N+]([O-])c1ccc(S(=O)(=O)SC(F)(F)F)cc1
inactive: dose: 75.0 mg/kg/injection, schedule: Q01DX001 (ip), vehicle: saline 106 % of control | dose: 150.0 mg/kg/injection, schedule: Q01DX001 (ip), vehicle: saline 102 % of control

Cc1cccc[n+]1Cc1ccccc1
inactive: dose: 9.38 mg/kg/injection, schedule: Q01DX001 (ip), vehicle: saline 100 % of control | dose: 18.75 mg/kg/injection, schedule: Q01DX001 (ip), vehicle: saline 97 % of control | dose: 37.5 mg/kg/injection, schedule: Q01DX001 (ip), vehicle: saline 101 % of control

Nc1cc(S(N)(=O)=O)ccc1N1CCCCC1
inactive: [16] 95 % of control | [17] 96 % of control | [18] 101 % of control

NC(=O)N/N=C/Cc1ccc2c(c1)OCO2
inactive: dose: 100.0 mg/kg/injection, schedule: Q01DX001 (ip), vehicle: carboxymethylcellulose (CMC) 97 % of control | [10] 87 % of control | [11] 92 % of control

O=c1cc(CSCC(O)CO)[nH]c(=O)[nH]1 (stereo unspecified)
inactive: [4] 98 % of control | [6] 98 % of control | [7] 96 % of control

CCCCc1ccc(NC(=O)N(CCCl)N=O)cc1
inactive: dose: 75.0 mg/kg/injection, schedule: Q01DX009 (ip), vehicle: carboxymethylcellulose (CMC) 106 % of control | dose: 75.0 mg/kg/injection, schedule: Q04DX003 (ip), vehicle: saline with Tween-80 120 % of control | dose: 112.5 mg/kg/injection, schedule: Q01DX009 (ip), vehicle: carboxymethylcellulose (CMC) 87 % of control
active: dose: 6.0 mg/kg/injection, schedule: Q01DX009 (ip), vehicle: carboxymethylcellulose (CMC) 156 % of control | dose: 33.0 mg/kg/injection, schedule: Q01DX009 (ip), vehicle: carboxymethylcellulose (CMC) 175 % of control | dose: 37.5 mg/kg/injection, schedule: Q01DX001 (ip), vehicle: carboxymethylcellulose (CMC) 163 % of control | dose: 50.0 mg/kg/injection, schedule: Q01DX009 (ip), vehicle: carboxymethylcellulose (CMC) 180 % of control | [20] 194 % of control | [21] 260 % of control

CCCCCCCCC1SC(=S)NC1CCCCCCCC(=O)OC (stereo unspecified)
inactive: dose: 100.0 mg/kg/injection, schedule: Q04DX002 (ip), vehicle: saline with Tween-80 96 % of control | dose: 200.0 mg/kg/injection, schedule: Q04DX002 (ip), vehicle: saline with Tween-80 100 % of control | dose: 400.0 mg/kg/injection, schedule: Q04DX002 (ip), vehicle: saline with Tween-80 100 % of control
